Experimental data: US20240058316A1, “PRODRUG OF A PHENOLIC TRPV1 AGONIST FOR THE TREATMENT OF PAIN” (Concentric Analgesics, Inc., priority 2020, published 2024)

Experiments:
[1] = background statement; cited from earlier work
[2] = test system: pain following TKA surgery; test: Phase 1/2 randomized, double-blind, placebo-controlled study in patients undergoing total knee arthroplasty (TKA); format: in vivo, human
Procedure: • This is a two-part, Phase 1/2, randomized, double-blind, placebo-controlled study. In Part A, 2 or more exploratory sequential dose-escalation cohorts will be evaluated, each with administration of a single dose of Compound 1 or placebo infiltrated/instilled during surgery in patients undergoing TKA (FIG. 5).
• 1. Cohort #1: total N=8 patients randomized 3:1 Compound 1 36 mg in 120 mL (0.3 mg/mL) or placebo 120 mL • 2. Cohort #2: total N=8 patients randomized 3:1 Compound 1 60 mg in 120 mL (0.5 mg/mL) or placebo 120 mL • 3. Cohort #2: total N=8 patients randomized 3:1 Compound 1 90 mg in 120 mL (0.75 mg/mL) or placebo 120 mL
• 1. Cohort #1: total N=˜97 patients randomized 2:1 Compound 1 36 mg in 120 mL (0.3 mg/mL) or placebo 120 mL • 2. Cohort #2: total N=˜97 patients randomized 2:1 Compound 1 60 mg in 120 mL (0.5 mg/mL) or placebo 120 mL
Subjects underwent unilateral total knee arthroplasty (replacement) (TKA). […]
Following surgery, patients were transferred to the PACU where they underwent an assessment of safety and efficacy over the next 96 (±4) hours. T0 is the time of admission into the PACU (as recorded in notes by the PACU nurse). The schedule of assessments was as follows: • Patients with inadequately controlled pain may request rescue at any time during T0 to D5; however, patients will be encouraged to receive rescue medication only with an NRS ≥4. • Pain intensity (assessed with NRS). • During the inpatient stay, NRS at rest beginning with the PACU admission was able to be assessed once the patient is awake. […] Scheduled NRS scores must be recorded regardless of timing of pre-rescue medication NRS scores and administration of rescue medication. The actual time of all NRS scores must be recorded, i.e., not the nominal time. • During the inpatient stay, evoked NRS twice daily after physical therapy (most preferred) or ambulation for approximately 10 yards (preferred) or transfers to/from bed or wheelchair. […]

[3] = Aqueous solubility (descriptive statement); format: physicochemical
[4] = test system: postoperative pain after a bunionectomy; test: Phase 2 randomized, double-blind, placebo-controlled study in subjects undergoing bunionectomy; format: in vivo, human; settings: for reduction in opioid consumption: FIG. 3
Procedure: Compound 1 was investigated as a potential therapy for treatment of pain following bunionectomy. Compound 1 was administered (injected and instilled) directly into the postoperative wound during the surgery. This study is a follow-on placebo-controlled efficacy and safety study which includes assessments of wound healing and a PK study in enrolled subjects.
• This trial was designed to determine the efficacy of study treatment (Compound 1 vs. placebo) infiltrated/instilled during surgery in treating postoperative pain after a bunionectomy in the setting of multimodal analgesia in addition to a Mayo block with bupivacaine in the first 24 h (FIG. 1).
Protocol: This Phase 2, multi-center, randomized, double-blind, placebo-controlled, parallel design study evaluated a single dose of one of three Compound 1 dose groups vs. placebo injected during an elective BUNX with a multimodal analgesia regimen including an NSAID and regional Mayo block with bupivacaine. The study was conducted in two parts: • Inpatient period which continued to 96h after completion of study treatment injection (TO) or T96h. • Outpatient period which began on discharge from the inpatient unit through various follow visits to D29±2 (W4) after surgery, or if necessary for ongoing safety assessments, to D36±2 (W5).
Subjects underwent unilateral transpositional first metatarsal osteotomy for the correction of hallux valgus deformity (bunionectomy or BUNX). The surgery was performed under light to moderate sedation anesthesia (what constitutes this level of sedation and the additional anesthetic medications used per discretion of the anesthesiologist). In accordance with standard of care, light to moderate sedation was supplemented with a Mayo block to produce surgical anesthesia and postoperative analgesia. After administering light to moderate sedation, but prior to surgery, performed a Mayo block by infiltrating 0.5% bupivacaine hydrochloride (up to 30 mL total volume, 150 mg) at least 3 cm proximal to the “surgical site”. The Mayo block was performed at 15-30 minutes prior to study treatment dosing. “Surgical site” is defined as the area extending approximately 2-3 cm in all directions (lateral/medial/proximal/distal) from the incision site and surrounding tissues which may be affected by the infiltration of study treatment.
After the surgery, subjects were monitored for 96 hours in an inpatient unit. Safety and efficacy evaluations were performed. […] Subjects were required to meet certain pre-specified criteria prior to discharge.
T0 is the time that the study treatment injection/instillation is completed.
Following surgery, subjects were transferred to the appropriate recovery unit where they underwent various assessments over the next 96 hours (end of surgery [EOS] to T96h). In addition to the Mayo block noted above, a multimodal analgesia regimen included the following during the immediate postoperative period: • Ketorolac 30 mg IV (a non-steroidal anti-inflammatory drug (NSAID) to be administered intraoperatively before the end of surgery. Per investigator discretion, adjust the dose as necessary for subject age and medical condition. • Acetaminophen 1000 mg IV to be administered intraoperatively before the end of surgery.
After the non-opioid analgesics noted above has been administered, no additional NSAIDs or acetaminophen were administered during the inpatient phase of the study (through T96h). Additionally, the following rescue medication was able to be administered for any moderate to severe breakthrough pain during the inpatient period: • PO oxycodone 5 mg prn q2h in the first 12 hours after surgery for moderate or severe pain (≥4) as reported by subjects using the 0 to 10 numerical rating scale of current pain intensity (NRS). • PO oxycodone 5 mg prn q4h from 12 to 96 hours after surgery for moderate or severe pain (NRS≥4).
After surgery, subjects were monitored for 96 hours (through T96h) at the trial site as an inpatient.

[5] = test system: pain in subjects undergoing surgery to repair a ventral hernia; test: Randomized, double-blind, placebo-controlled study in subjects undergoing ventral hernia repair (laparotomy); format: in vivo, human
Procedure: Using the general delivery technique identified in Part A, this dose, concentration and volume will be assessed compared to a placebo in a pilot, double-blind, randomized, parallel-group design (see Figure). […] Study treatment was administered intraoperatively as a single administration via infiltration/instillation into the “surgical site” prior to wound closure. In general, the intent was to deliver local anesthetic into the surgical site “on the way in” (upon adequate exposure of and prior to incision/dissection of target tissues). […] The “surgical site” is defined as the area extending approximately at least 2-3 cm in all directions (lateral/medial/proximal/distal/deep) from the margins of substantially all tissue traumatized by the surgical procedure, i.e., all tissue dissected, cut, electrocauterized (bovied), sutured or tacked, including both deep and superficial areas. The surgical site include sthe full area of surgical mesh placement. […] The surgery was performed under general anesthesia with the following guidelines: • Inhaled anesthetic or propofol infusion with or without nitrous oxide (N20). • Adequate optional premedication typically with midazolam (up to 5 mg), fentanyl (up to 100 mcg), more can be given if indicated • Supplemental anesthesia and sedation will be per institutional guidelines Intra-operative titration of intravenous (IV) fentanyl, including during emergence, will be per institutional guidelines. In addition, patients received bupivacaine hydrochloride (BupiHCl) 175 mg delivered as follows: • Prior to start of surgery under ultrasound guidance: • BupiHCl 0.25%, 30 mL (75 mg) diluted with 10 mL of normal saline to a volume of 40 mL delivered as a rectus block with 20 mL on each side. • Immediately before/after surgical incision: • BupiHCl 0.25%, 40 mL (100 mg), may be diluted in up to 110 mL of normal saline to a total volume of not more than 150 mL: Infiltration of abdominal wall, anterior rectus abdominis sheath, posterior rectus abdominis sheath, other fascia, peritoneum (including circumferential areas of intended mesh placement) Standard supplemental anesthetic and perioperative care was provided per institutional guidelines. This typically included (but not be limited to) steps to ensure preservation of intraoperative normothermia (including the use of preoperative and intraoperative forced-air warming) and deep venous thrombosis prophylaxis. Patients received general anesthesia and bilateral rectus blocks. […]

[6] = bunionectomy, 4.2 mg (0.3 mg/mL)

## COc1cc(CNC(=O)CCCC/C=C/C(C)C)ccc1O [Capsaicin]
[1]
  solubility in aqueous media or local anesthetic solutions: virtually insoluble

## CNCC1CCCCN1C(=O)Oc1ccc(CNC(=O)CCCC/C=C/C(C)C)cc1OC (stereo not shown) [Compound 1, (E)-2-methoxy-4-((8-methylnon-6-enamido)methyl)phenyl 2-((methylamino)methyl)piperidine-1-carboxylate]
[2]; 36 mg (0.3 mg/mL), FIG. 7
  reductions in pain: long lasting reductions in pain
[2]; 36 mg (0.3 mg/mL), FIG. 8
  reduction in opioid consumption: significant reduction in opioid consumption
[2]; 60 mg (0.5 mg/mL), compared with 36 mg
  analgesic activity: lower analgesic activity which was of a shorter duration
[3]
  water solubility: highly water-soluble
[4]; bunionectomy, 0.15 mg/mL (2.1 mg), FIG. 2
  pain reduction: trend in pain reduction
[4]; bunionectomy, 2.1 mg (0.15 mg/mL)
  reduction in opioid consumption: statistically significant reduction in opioid consumption
[4]; [6]
  reduction in pain: statistically significant reduction in pain
  reduction in opioid consumption: statistically significant reduction in opioid consumption
[4]; bunionectomy, 4.2 mg, FIG. 4
  persistence of analgesic effect: ≥ 15 days
[4]; bunionectomy, concentration of 0.3 mg/mL
  dose of maximum analgesic effect: 4.2 mg
[4]; single administration during surgery, bunionectomy patients
  reductions of pain and opioid consumption: long lasting reductions of pain and opioid consumption
[5]; 36 mg (0.3 mg/mL)
  reductions in pain: long lasting reductions in pain
[5]; 36 mg (0.3 mg/mL), FIG. 9
  reduction in pain at rest compared to placebo: 21%
  reduction in pain with coughing compared to placebo: 46%
[5]; FIG. 9
  reduction in opioid consumption compared to placebo: 26%
